Legend:
[1] = system: behaviorally-diagnosed psychiatric conditions (DSM categories); set-up: species or system human; details: in vivo;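 for use code of agent in 301.7 Antisocial Personality Disorder: N marks novel agent found effective in subject subgroups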;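 for use code of agent in 301.83 Borderline Personality Disorder: N marks novel agent found effective in subject subgroups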;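 for use in 307.50 Eating Disorder NOS: N marks novel agent found effective in subject subgroups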;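 for use in 307.51 Bulimia Nervosa: N marks novel agent found effective in subject subgroups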;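 for use in 313.81 Oppositional Defiant Disorder: N marks novel agent found effective in subject subgroups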
[2] = system: patients with various DSM diagnoses; details: human, in vivo
[3] = system: patients with alpha frequency deficits / theta excess; set-up: species or system human; details: in vivo

CC(NC(C)(C)C)C(=O)c1cccc(Cl)c1 (stereo not drawn) [BUPROPRION (REGULAR TABS)]
use code of agent in 301.20 Schizoid Personality Disorder [1]: N
use code of agent in 301.22 Schizotypal Personality Disorder [1]: N
use code of agent in 301.4 Obsessive-Compulsive Personality Disorder [1]: N
use code of agent in 301.50 Histrionic Personality Disorder [1]: N
use code of agent in 301.6 Dependent Personality Disorder [1]: N
use code of agent in 301.7 Antisocial Personality Disorder [1]: N
use code of agent in 301.82 Avoidant Personality Disorder [1]: N
use code of agent in 301.83 Borderline Personality Disorder [1]: N
use code of agent in 302.71 Hypoactive Sexual Desire Disorder [1]: N
use code of agent in 307.42 Primary Insomnia [1]: N
use code of agent in 311 Depressive Disorder NOS [1]: N
use code of agent in 316 Psychological Factors Affecting Medical Condition, Atypical Asthma [1]: N
use code of agent in 316 Psychological Factors Affecting Medical Condition, Neurodermatitis [1]: N
use code of agent in Bipolar I Disorder [1]: N
use in 294.8 Amnestic Disorder [1]: N
use in 294.9 Cognitive Disorder NOS [1]: N
use in 296.89 Bipolar II Disorder [1]: N
use in 299.80 Pervasive Developmental Disorder NOS [1]: N
use in 300.00 Anxiety Disorder NOS [1]: N
use in 300.02 Generalized Anxiety Disorder [1]: N
use in 300.22 Agoraphobia Without History of Panic Disorder [1]: N
use in 300.23 Social Phobia [1]: N
use in 300.29 Specific Phobia [1]: N
use in 300.3 Obsessive-Compulsive Disorder [1]: N
use in 301.13 Cyclothymic Disorder [1]: N
use in 307.1 Anorexia Nervosa [1]: N
use in 307.50 Eating Disorder NOS [1]: N
use in 307.51 Bulimia Nervosa [1]: N
use in 307.9 Communication Disorder NOS [1]: N
use in 309.21 Separation Anxiety Disorder [1]: N
use in 309.81 Posttraumatic Stress Disorder [1]: N
use in 312.30 Impulse-Control Disorder NOS [1]: N
use in 312.31 Pathological Gambling [1]: N
use in 312.34 Intermittent Explosive Disorder [1]: N
use in 312.39 Trichotillomania [1]: N
use in 312.8 Conduct Disorder [1]: N
use in 313.81 Oppositional Defiant Disorder [1]: N
use in 315.9 Learning Disorder NOS [1]: N
use in Attention-Deficit/Hyperactivity Disorder [1]: N
use in Panic Disorder [1]: N
use of the agent in the diagnostic category (C = common use; N = novel use from rEEG features) [1]: N

Nc1nnc(-c2cccc(Cl)c2Cl)c(N)n1 [LAMOTRIGINE]
use in Dementia of the Alzheimer's Type [1]: N

NC(=O)C[S+]([O-])C(c1ccccc1)c1ccccc1 (stereo not drawn) [MODAFINIL]
use code of agent in 294.8 Amnestic Disorder [1]: N

C[C@H](N)Cc1ccccc1 [D-amphetamine]
false negatives [2]: 5 patients

CC(C)CC(N(C)C)C1(c2ccc(Cl)cc2)CCC1 (stereo not drawn) [SILBTRMIN]
use code of agent in 312.34 Intermittent Explosive Disorder [1]: N
use in 307.22 Chronic Motor or Vocal Tic Disorder [1]: N
use of the agent in the diagnostic category (C = common use; N = novel use from rEEG features) [1]: N

N[C@@H](Cc1ccccc1)C(=O)O [PHENYLALANINE, reference compound]
agent found effective in 299.00 Autistic Disorder [1]: N
agent found effective in 300.00 Anxiety Disorder NOS [1]: N
agent found effective in 300.02 Generalized Anxiety Disorder [1]: N
agent found effective in 300.22 Agoraphobia Without History of Panic Disorder [1]: N
agent found effective in 300.23 Social Phobia [1]: N
agent found effective in 300.29 Specific Phobia [1]: N
agent found effective in 300.3 Obsessive-Compulsive Disorder [1]: N
agent found effective in 309.81 Posttraumatic Stress Disorder [1]: N
agent found effective in Panic Disorder [1]: N
use in Dementia of the Alzheimer's Type [1]: N

NC(=O)CC[C@H](N)C(=O)O [GLUTAMINE, reference compound]
clinical response of granddaughter [3]: successfully treated
agent found effective in 299.00 Autistic Disorder [1]: N
agent found effective in 300.00 Anxiety Disorder NOS [1]: N
agent found effective in 300.02 Generalized Anxiety Disorder [1]: N
agent found effective in 300.22 Agoraphobia Without History of Panic Disorder [1]: N
agent found effective in 300.23 Social Phobia [1]: N
agent found effective in 300.29 Specific Phobia [1]: N
agent found effective in 300.3 Obsessive-Compulsive Disorder [1]: N
agent found effective in 309.81 Posttraumatic Stress Disorder [1]: N
agent found effective in Panic Disorder [1]: N
use in Dementia of the Alzheimer's Type [1]: N

Cc1nc2n(c(=O)c1CCN1CCC(c3noc4cc(F)ccc34)CC1)CCCC2 [RISPERDONE]
use in 300.22 Agoraphobia Without History of Panic Disorder [1]: N

From patent publication US7962204B2 (priority 2001, dated 2011)
